The subject of assay [1] is bovine arotic endothelial cells (BAEC). Kind of assay: BAEC proliferation assay. Type of assay: cell-based. The conditions noted are these: tritiated thymidine incorporation, 24 hours drug plus 6 hours label, 0.5% DMSO. How it is done:
(A) BAEC Proliferation Assay
About 2500 bovine arotic endothelial cells (BAEC) in 195 μl of DMEM (Dulbecco's Modified Eagle's Medium) were plated per well of a 96-well plate and grown at 37° C. and 5% CO2. Cells were allowed to recover for 12 hours. 1 μL of 200 times drug stock solution was added to each treatment well. The final vehicle (DMSO) concentration was 0.5%. Vehicle only was used as a control for maximum proliferation. Three wells were treated for each drug concentration. After 24 hours, 1 μCi of tritiated thymidine (diluted in DMEM to a total volume of 10 μL) was added to each well. After additional 6 hours incubation, each well was washed in 180 μl of PBS buffer. 70 μL of trypsin was added to each well. Plates were incubated for 5 minutes at 37° C. Cells were harvested using a Harvester 96 Mach III M (Tomtec) and transferred to glass fiber filters (Wallac). 6 mL of Betaplate Scint (PerkinElmer) was added to each filter in a sealed sample bag. Scintillation counting was done in using a 1450 MicroBeta counter (Wallac). CPM were normalized to vehicle control, averaged across three replicates, and fit to the following equation using GraphPadPrism v4.0: Y=Bottom+(Top-Bottom)/(1+10^((Log EC50−X)*HillSlope)) wherein X is the logarithm of concentration and Y is the response. Y started at Bottom and went to Top with a sigmoid shape. The bottom value was constrained to zero.
On the technique in general: Uptake of a labelled nucleoside into DNA is a usual measure of proliferation.

For assay [2], the target named is T1, Recombinant human MetAP-2 (Homo sapiens, UniProt P50579).
T1 construct: made in house; host or cells: insect cells
T1 sequence (P50579 whole entry): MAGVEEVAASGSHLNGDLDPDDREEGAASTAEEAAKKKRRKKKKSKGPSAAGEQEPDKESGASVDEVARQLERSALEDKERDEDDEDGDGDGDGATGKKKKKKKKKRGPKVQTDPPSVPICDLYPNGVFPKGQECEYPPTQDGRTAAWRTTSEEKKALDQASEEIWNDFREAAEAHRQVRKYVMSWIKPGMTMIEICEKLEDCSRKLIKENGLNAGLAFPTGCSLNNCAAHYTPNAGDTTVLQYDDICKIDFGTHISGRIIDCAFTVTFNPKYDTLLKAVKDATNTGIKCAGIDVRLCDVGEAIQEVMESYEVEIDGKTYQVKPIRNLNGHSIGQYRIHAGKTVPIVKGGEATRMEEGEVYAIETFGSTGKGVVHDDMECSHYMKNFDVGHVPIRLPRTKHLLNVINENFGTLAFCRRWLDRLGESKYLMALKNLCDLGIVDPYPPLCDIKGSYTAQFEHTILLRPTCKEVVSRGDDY
Kind of assay: MetAP-2 enzymatic assay. Type of assay: biochemical. The conditions noted are these: 1 nM purified human MetAP-2, inhibitor incubated at 37° C. for 30 minutes, 1 mM Met-Gly-Met-Met, released methionine. On the procedure:
(B) MetAP-2 Enzymatic Assay Recombinant human MetAP-2 was expressed and purified from insect cells as previously described (Li, X.; Chang, Y.-H. Biochem. Biophys. Res. Commun. 1996, 227, 152). […] To start the enzymatic reaction, […] was added to a concentration of 1 mM to the reaction mixture. Released methionine was quantified at different time points (0, 2, 3 and 5 min) using the method of Zuo et al (Zuo, S.; Guo, Q.; Ling, C.; Chang, Y-.H. Mol. Gen. Genet. 1995, 246, 247).

By IC50 is commonly meant the midpoint of a concentration-inhibition curve. For `CO[C@@H]1[C@H](O)CC[C@]2(CO2)[C@H]1[C@@]1(C)O[C@@H]1CC=C(C)C` [Fumagillol], the half-inhibitory concentration (IC50) in assay [1] is 2.04 nM; in assay [2], 909 nM.
Turning to `C=CCN1CCN(C(=O)O[C@@H]2CC[C@]3(CO3)[C@@H]([C@@]3(C)O[C@@H]3CC=C(C)C)C2)CC1` [Compound 17x], in assay [1] (Bos taurus, BAEC, 30 h), the IC50 was 0.047 nM.
With `CC(C)=CC[C@H]1O[C@]1(C)[C@H]1C[C@H](OC(=O)N[C@@H](C(N)=O)C(C)C)CC[C@]12CO2` [Compound 17a], the IC50 was 0.21 nM in assay [1] (Bos taurus, BAEC, 30 h) and 29 nM in assay [2].
The corresponding values for `CC(C)=CC[C@H]1O[C@]1(C)[C@H]1C[C@H](OC(=O)N[C@@H](Cc2ccccc2)C(=O)NCCCN=[N+]=[N-])CC[C@]12CO2` [Compound 17g] are 1.41 nM and 41 nM.
In the case of `CC(C)=CC[C@H]1O[C@]1(C)[C@H]1C[C@H](OC(=O)NN2CCCCC2)CC[C@]12CO2` [Compound 17ab], in assay [1] (Bos taurus, BAEC, 30 h), the half-inhibitory concentration (IC50) turned out to be 0.04 nM.
Still for that read-out and setting: then `CC(C)=CC[C@H]1O[C@]1(C)[C@H]1C[C@H](OC(=O)N2CCN(CC3CCCCC3)CC2)CC[C@]12CO2` [Compound 17w], with 0.074 nM.
Still for that read-out and setting: then `CC(C)=CC[C@H]1O[C@]1(C)[C@H]1C[C@H](OC(=O)N2CCCCC2)CC[C@]12CO2` [Compound 17t], with 0.081 nM.
As for `CC(C)=CC[C@H]1O[C@]1(C)[C@H]1C[C@H](OC(=O)N[C@@H](C(N)=O)c2ccccc2)CC[C@]12CO2` [Compound 17e], the IC50 amounted to 0.085 nM in assay [1] (Bos taurus, BAEC, 30 h) and 42 nM in assay [2].
For the molecule `CC(C)=CC[C@H]1O[C@]1(C)[C@H]1C[C@H](OC(=O)N[C@@H](Cc2ccccc2)C(=O)NC2CC2)CC[C@]12CO2` [Compound 17j], the half-maximal inhibitory concentration (IC50) in assay [1] (Bos taurus, BAEC, 30 h) turned out to be 0.027 nM; in assay [2] it was 41 nM.
Turning to `COC(=O)[C@@H](NC(=O)O[C@@H]1CC[C@]2(CO2)[C@@H]([C@@]2(C)O[C@@H]2CC=C(C)C)C1)C(C)C` [Compound 17p], the IC50 is 0.062 nM in assay [1] (Bos taurus, BAEC, 30 h) and 27 nM in assay [2].
Take `CC(C)=CC[C@H]1O[C@]1(C)[C@H]1C[C@H](OC(=O)N[C@@H](Cc2ccccc2)C(N)=O)CC[C@]12CO2` [Compound 17d]: the 50% inhibitory concentration (IC50) is 0.067 nM in assay [1] (Bos taurus, BAEC, 30 h) and 56 nM in assay [2].
The matching figures for `C=CCNC(=O)[C@H](Cc1ccccc1)NC(=O)O[C@@H]1CC[C@]2(CO2)[C@@H]([C@@]2(C)O[C@@H]2CC=C(C)C)C1` [Compound 17i]: 0.059 nM and 47 nM.
Regarding `CC(C)=CC[C@H]1O[C@]1(C)[C@H]1C[C@H](OC(=O)N2CCN(C)CC2)CC[C@]12CO2` [Compound 17u], the IC50 in assay [1] (Bos taurus, BAEC, 30 h) was found to be 0.089 nM.
With `CC(C)=CC[C@H]1O[C@]1(C)[C@H]1C[C@H](OC(=O)N[C@H](C(N)=O)C(C)C)CC[C@]12CO2` [Compound 17b], the IC50 in assay [1] (Bos taurus, BAEC, 30 h) stood at 0.11 nM; in assay [2], 50 nM.
For `CC(C)=CC[C@H]1O[C@]1(C)[C@H]1C[C@H](OC(=O)N2CCC2)CC[C@]12CO2` [Compound 17r], the IC50 in assay [1] (Bos taurus, BAEC, 30 h) was determined as 0.038 nM.
Regarding `CC(C)=CC[C@H]1O[C@]1(C)[C@H]1C[C@H](OC(=O)N2CCN(C3CCCC3)CC2)CC[C@]12CO2` [Compound 17y], the concentration for half-maximal inhibition (IC50) in assay [1] (Bos taurus, BAEC, 30 h) is 0.031 nM.
For `CC(C)=CC[C@H]1O[C@]1(C)[C@H]1C[C@H](OC(=O)N[C@@H](Cc2ccccc2)C(=O)N2CCOCC2)CC[C@]12CO2` [Compound 17h], the half-inhibitory concentration (IC50) amounted to 0.079 nM in assay [1] (Bos taurus, BAEC, 30 h) and 44 nM in assay [2].
Take `C#CCNC(=O)[C@@H](Cc1ccccc1)NC(=O)O[C@@H]1CC[C@]2(CO2)[C@@H]([C@@]2(C)O[C@@H]2CC=C(C)C)C1` [Compound 17l]: the IC50 worked out at 0.051 nM in assay [1] (Bos taurus, BAEC, 30 h) and 21 nM in assay [2].
The matching figures for `CC(C)=CC[C@H]1O[C@]1(C)[C@H]1C[C@H](OC(=O)N2CCN(c3ccc([N+](=O)[O-])cc3)CC2)CC[C@]12CO2` [Compound 17q]: 0.02 nM and 26 nM.
The matching figures for `CC(C)=CC[C@H]1O[C@]1(C)[C@H]1C[C@H](OC(=O)N[C@H](C(=O)NC2CC2)C(C)C)CC[C@]12CO2` [Compound 17n]: 0.031 nM and 19 nM.
The corresponding values for `COc1ccc(CNC(=O)[C@H](Cc2ccccc2)NC(=O)O[C@@H]2CC[C@]3(CO3)[C@@H]([C@@]3(C)O[C@@H]3CC=C(C)C)C2)cc1` [Compound 17m] are 0.19 nM and 11 nM.
With `CC(C)=CC[C@H]1O[C@]1(C)[C@H]1C[C@H](OC(=O)N2CCCC2)CC[C@]12CO2` [Compound 17s], in assay [1] (Bos taurus, BAEC, 30 h), the half-maximal inhibitory concentration (IC50) is 0.04 nM.
On the same count and under the same terms, in the case of `CC(C)=CC[C@H]1O[C@]1(C)[C@H]1C[C@H](OC(=O)Nc2nccs2)CC[C@]12CO2` [Compound 17ac] it was 0.038 nM.
The same measure, in the same setting: then `CC(C)=CC[C@H]1O[C@]1(C)[C@H]1C[C@H](OC(=O)N2CCOCC2)CC[C@]12CO2` [Compound 17z], with 0.048 nM.
On to `CC(C)=CC[C@H]1O[C@]1(C)[C@H]1C[C@H](OC(=O)N[C@H](CC(C)C)C(N)=O)CC[C@]12CO2` [Compound 17f], for which the concentration for half-maximal inhibition (IC50) in assay [1] (Bos taurus, BAEC, 30 h) stood at 0.092 nM; in assay [2], 39 nM.
`CC(C)=CC[C@H]1O[C@]1(C)[C@H]1C[C@H](OC(=O)N[C@H](C(=O)NC2CCCC2)C(C)C)CC[C@]12CO2` [Compound 17o]: the concentration for half-maximal inhibition (IC50) in assay [1] (Bos taurus, BAEC, 30 h) was 0.035 nM; in assay [2], 28 nM.
The matching figures for `CC(C)=CC[C@H]1O[C@]1(C)[C@H]1C[C@H](OC(=O)N[C@H](Cc2ccccc2)C(N)=O)CC[C@]12CO2` [Compound 17c]: 0.039 nM and 16 nM.
The corresponding values for `CC(C)=CC[C@H]1O[C@]1(C)[C@H]1C[C@H](OC(=O)N[C@@H](Cc2ccccc2)C(=O)N2CCN(Cc3ccc(F)cc3)CC2)CC[C@]12CO2` [Compound 17k] are 0.21 nM and 12 nM.
For `CC(C)=CCC1OC1(C)C1CC(O)CCC12CO2` (stereo not shown) [5-Demethoxyfumagillol, 5-demethoxyfumagillol], the half-inhibitory concentration (IC50) in assay [1] stood at 0.28 nM; in assay [2] it was 975 nM.
`CC(C)=CC[C@H]1O[C@]1(C)[C@H]1C[C@H](OC(=O)N2CCN(c3ccc(F)cc3)CC2)CC[C@]12CO2` [Compound 17v]: the IC50 in assay [1] (Bos taurus, BAEC, 30 h) amounted to 0.068 nM.

Source of the values: US8299067B2, “5-demethoxyfumagillol and derivatives thereof” (Versitech Limited, priority 2008, dated 2012).
